Test results from ChEMBL document CHEMBL3217629, “Discovery of novel morpholinoquinoxalines as PI3K inhibitors by pharmacophore-based screening” (Medchemcomm, 2012).

Assays:
A549 = assay: Cytotoxicity against human A549 cells after 72 hrs by MTT assay; format: functional, cell-based; settings: A549, 72 h
HL-60 = assay: Cytotoxicity against human HL60 cells after 72 hrs by MTT assay; format: functional, cell-based; settings: HL-60, 72 h
[1] = target: Phosphatidylinositol 4,5-bisphosphate 3-kinase catalytic subunit alpha isoform (Homo sapiens, UniProt P42336); assay: Inhibition of recombinant human PI3Kalpha using diC8-PI(4,5)P2 as substrate after 3 hrs by fluorescence polarization method
PC-3 = assay: cells; settings: Homo sapiens, PC-3, 72 h
Description: Cytotoxicity against human PC3 cells after 72 hrs by MTT assay

HCT-116 = assay: cells; settings: Homo sapiens, HCT-116, 72 h

Sequence of Phosphatidylinositol 4,5-bisphosphate 3-kinase catalytic subunit alpha isoform (P42336 whole entry, canonical isoform): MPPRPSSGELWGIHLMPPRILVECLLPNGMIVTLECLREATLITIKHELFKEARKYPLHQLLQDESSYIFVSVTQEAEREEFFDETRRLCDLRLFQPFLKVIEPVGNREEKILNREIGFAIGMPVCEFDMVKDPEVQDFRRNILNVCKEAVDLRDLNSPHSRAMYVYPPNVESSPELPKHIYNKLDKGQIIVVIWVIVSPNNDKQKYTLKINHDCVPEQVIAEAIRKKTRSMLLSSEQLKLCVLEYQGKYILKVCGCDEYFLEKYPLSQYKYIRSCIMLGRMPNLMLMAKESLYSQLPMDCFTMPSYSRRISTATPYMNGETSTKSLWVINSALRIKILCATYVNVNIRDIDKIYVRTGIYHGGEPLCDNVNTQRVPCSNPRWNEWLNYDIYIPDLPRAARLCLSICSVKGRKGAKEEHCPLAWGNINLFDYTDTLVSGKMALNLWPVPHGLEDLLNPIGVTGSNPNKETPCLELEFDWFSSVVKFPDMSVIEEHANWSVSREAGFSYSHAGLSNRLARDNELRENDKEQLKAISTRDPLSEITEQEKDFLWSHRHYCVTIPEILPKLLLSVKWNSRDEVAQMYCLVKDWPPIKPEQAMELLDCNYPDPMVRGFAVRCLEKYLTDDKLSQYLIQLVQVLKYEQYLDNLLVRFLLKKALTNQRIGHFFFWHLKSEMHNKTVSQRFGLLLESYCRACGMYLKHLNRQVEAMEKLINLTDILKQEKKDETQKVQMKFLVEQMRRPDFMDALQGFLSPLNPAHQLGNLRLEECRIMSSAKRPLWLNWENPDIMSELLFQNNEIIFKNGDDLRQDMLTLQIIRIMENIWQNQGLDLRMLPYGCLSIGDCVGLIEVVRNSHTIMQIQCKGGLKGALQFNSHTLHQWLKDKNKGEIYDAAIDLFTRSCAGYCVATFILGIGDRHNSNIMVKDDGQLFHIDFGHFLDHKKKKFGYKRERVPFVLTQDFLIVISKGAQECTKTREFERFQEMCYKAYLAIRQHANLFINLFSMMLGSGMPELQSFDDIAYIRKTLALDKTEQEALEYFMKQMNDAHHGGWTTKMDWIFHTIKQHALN

## Cc1ccc(S(=O)(=O)c2nc3ccccc3nc2N2CCOCC2)cc1
A549
  IC50: 3.3 µM
HL-60
  IC50: 0.95 µM
[1]
  IC50: 1.58 µM
PC-3
  IC50: 9.34 µM
HCT-116
  IC50: 10.5 µM

## COc1ccc(S(=O)(=O)c2nc3ccccc3nc2N2CCOCC2)cc1
A549
  IC50: 19.4 µM
HL-60
  IC50: 4.8 µM
[1]
  IC50: 1.4 µM
PC-3
  IC50: 0.88 µM
HCT-116
  IC50: > 50 µM

## O=S(=O)(c1ccc(Br)cc1)c1nc2ccccc2nc1N1CCOCC1
A549
  IC50: 6.65 µM
HL-60
  IC50: 3.41 µM
[1]
  IC50: 2.89 µM
PC-3
  IC50: 25.4 µM
HCT-116
  IC50: 35 µM

## O=S(=O)(c1ccc(F)cc1)c1nc2ccccc2nc1N1CCOCC1
A549
  IC50: 5.64 µM
HL-60
  IC50: 1.74 µM
[1]
  IC50: 2.49 µM
PC-3
  IC50: 3.4 µM
HCT-116
  IC50: 3.61 µM

## c1ccc(Sc2nc3ccccc3nc2N2CCOCC2)cc1
A549
  IC50: 7.25 µM
HL-60
  IC50: 5.18 µM
[1]
  IC50: > 50 µM
PC-3
  IC50: > 50 µM
HCT-116
  IC50: 45.6 µM

## O=S(=O)(c1ccccc1)c1nc2ccccc2nc1N1CCCCC1
A549
  IC50: > 50 µM
HL-60
  IC50: 27.1 µM
[1]
  IC50: 21.6 µM
PC-3
  IC50: 26.9 µM
HCT-116
  IC50: 6.48 µM
